Measured values: patent US20260166039A1 (SCHRÖDINGER, INC., priority 2022, published 2026)
Read-outs that look alike come from different tables or passages of the source.

How the values were obtained:
Wee1 kinase domain = target: T1, Wee1 kinase domain (Homo sapiens, UniProt P30291); test: Wee1 Kinase Biochemical Assay (ADP-Glo); conditions: 15 uM ATP
T1 construct: Wee1 kinase domain was purchased from Carna (catalog #05-177); purchased Carna 05-177
Outline: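 Carna Wee1 kinase domain at 1 nM, with 15 uM ATP and 2 ng/mL poly(Lys,Tyr 4:1) substrate in 40 mM Tris-HCl, 20 mM MgCl2, 0.1 mg/mL BSA, 2 mM DTT, run 4 h at 25° C. ADP formation read by ADP-Glo luminescence. Percent inhibition normalised to DMSO and saturating-inhibitor controls.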

[1] = tested on: phosphorylation of Cdc2 Y15 (Wee1 substrate) in A427 cells; test: Phosphorylated Cdc2 MSD Electrochemiluminescence Assay; assay type: cell-based; conditions: Homo sapiens
Outline: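 A427 cells (RPMI 1640, 10% FBS) treated 20 h after plating with 3-fold serial compound dilutions, in duplicate, 37 °C, 5% CO2; total incubation 6 h. Lysate Cdc2 pY15 read by MSD electrochemiluminescence sandwich immunoassay; % remaining signal normalised to DMSO (high) and reference Wee1 inhibitor (low) controls.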

[2] = class symbols, 1 nM Wee1 enzyme, 4 hours at 25° C.
[3] = A-427, class symbols, read-out: A427 pCDC2 MSD IC50

T1 sequence (P30291 299-569 limits assumed): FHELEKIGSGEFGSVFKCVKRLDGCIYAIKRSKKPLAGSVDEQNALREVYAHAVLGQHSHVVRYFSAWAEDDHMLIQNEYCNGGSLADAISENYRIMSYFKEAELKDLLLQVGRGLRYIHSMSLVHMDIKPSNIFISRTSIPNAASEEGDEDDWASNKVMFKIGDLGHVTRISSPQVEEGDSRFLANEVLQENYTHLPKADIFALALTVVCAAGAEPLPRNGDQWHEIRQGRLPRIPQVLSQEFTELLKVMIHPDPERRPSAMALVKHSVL

SMILES	IC50 (Wee1 kinase domain; Wee1 kinase domain, ADP-Glo)	IC50 ([1]; A-427, pCDC2 MSD)	IC50 (Wee1 kinase domain; [2])	IC50 [1, 3]
Cc1cc(Nc2ncc3c(n2)N(c2cccc(N=S(C)(C)=O)n2)[C@@H]2CC(C)(C)OC[C@]32C)ccc1[C@H]1CCNC1 (single isomer, unassigned) [Example 149]	< 10 nM	100 to 1000 nM	–	–
C[C@H]1COC(=O)N1c1cccc(N2c3nc(Nc4ccc([C@H]5CCNC5)nc4)ncc3[C@@]3(C)COC(C)(C)C[C@@H]23)n1 (single isomer, unassigned) [Example 259]	< 10 nM	100 to 1000 nM	–	–
CN1CCC[C@@H]1c1ccc(Nc2ncc3c(n2)N(c2cccc(N=S(C)(C)=O)n2)[C@@H]2CC(C)(C)OC[C@]32C)cc1 (single isomer, unassigned) [Example 127]	< 10 nM	< 100 nM	–	–
CC1(C)C[C@H]2N(c3cccc(N=S(C)(C)=O)n3)c3nc(Nc4ccn5ccnc5c4)ncc3[C@@]2(C)CO1 (single isomer, unassigned) [Example 379]	< 10 nM	100 to 1000 nM	–	–
CC1(C)C[C@H]2N(c3cccc(N=S4(=O)CCCC4)n3)c3nc(NC(=O)C4CC4)ncc3[C@@]2(C)CO1 (single isomer, unassigned) [Example 400]	–	–	< 10 nM	100 to 1000 nM
CNCc1cccc(N2c3nc(Nc4ccc(N5C[C@H]6C[C@@H]5CO6)cc4)ncc3[C@@]3(C)COC(C)(C)C[C@@H]23)n1 (single isomer, unassigned) [Example 44]	< 10 nM	< 100 nM	–	–
CC1(C)C[C@H]2N(c3cccc(N=S(C)(C)=O)n3)c3nc(NC(=O)[C@@H]4C[C@H]4c4ccccc4)ncc3[C@@]2(C)CO1 (single isomer, unassigned) [Example 396]	< 10 nM	100 to 1000 nM	–	–
C[C@H]1COC(=O)N1c1cccc(N2c3nc(Nc4ccc(C5(C)COC5)cc4)ncc3[C@@]3(C)COC(C)(C)C[C@@H]23)n1 (single isomer, unassigned) [Example 303]	< 10 nM	100 to 1000 nM	–	–
C[C@H]1COC(=O)N1c1cccc(N2c3nc(Nc4ccc([C@]5(C)CCN(C)C5)cc4)ncc3[C@@]3(C)COC(C)(C)C[C@@H]23)n1 (single isomer, unassigned) [Example 351]	< 10 nM	< 100 nM	–	–
Cn1nc(Nc2ncc3c(n2)N(c2cccc(N=S(C)(C)=O)n2)[C@@H]2CC(C)(C)OC[C@]32C)ccc1=O (single isomer, unassigned) [Example 365]	< 10 nM	1000 to 10000 nM	–	–
Cc1cc(Nc2ncc3c(n2)N(c2cccc(N4C(=O)OC[C@@H]4C)n2)[C@@H]2CC(C)(C)OC[C@]32C)ccc1[C@H]1CCNC1 (single isomer, unassigned) [Example 267]	< 10 nM	100 to 1000 nM	–	–
CNCc1cccc(N2c3nc(Nc4ccc(C5CCOCC5)cc4)ncc3[C@@]3(C)COC(C)(C)C[C@@H]23)n1 (single isomer, unassigned) [Example 35]	< 10 nM	100 to 1000 nM	–	–
CNCc1cccc(N2c3nc(Nc4ccc(C5CCN(C)CC5)c(C)c4)ncc3[C@@]3(C)COC(C)(C)C[C@@H]23)n1 (single isomer, unassigned) [Example 72]	< 10 nM	100 to 1000 nM	–	–
CC1(C)C[C@H]2N(c3cccc(N=S(C)(C)=O)n3)c3nc(Nc4ccc(C(F)F)nn4)ncc3[C@@]2(C)CO1 (single isomer, unassigned) [Example 377]	< 10 nM	1000 to 10000 nM	–	–
Cc1cc(Nc2ncc3c(n2)N(c2cccc(N=S(C)(C)=O)n2)[C@@H]2CC(C)(C)OC[C@]32C)ccc1[C@@H]1COCCN1 (single isomer, unassigned) [Example 114]	< 10 nM	< 100 nM	–	–
CN1CC2(C1)CN(c1ccc(Nc3ncc4c(n3)N(c3cccc(C(C)(C)O)n3)[C@@H]3CC(C)(C)OC[C@]43C)cc1)C2 (single isomer, unassigned) [Example 443]	–	–	< 10 nM	100 to 1000 nM
CNCc1ccc(Nc2ncc3c(n2)N(c2cccc(N4C(=O)OC[C@@H]4C)n2)[C@@H]2CC(C)(C)OC[C@]32C)cc1 (single isomer, unassigned) [Example 360]	< 10 nM	100 to 1000 nM	–	–
C[C@H]1COC(=O)N1c1cccc(N2c3nc(Nc4ccc([C@@H]5CCN(C)C5)nc4)ncc3[C@]3(C)COC(C)(C)C[C@H]23)n1 (single isomer, unassigned) [Example 264]	10 to 100 nM	100 to 1000 nM	–	–
C[C@H]1COC(=O)N1c1cccc(N2c3nc(Nc4ccc([C@H]5CCN(C)C5)nc4)ncc3[C@@]3(C)COC(C)(C)C[C@@H]23)n1 (single isomer, unassigned) [Example 263]	< 10 nM	< 100 nM	–	–
CC1(C)C[C@H]2N(c3cccc(N=S(C)(C)=O)n3)c3nc(Nc4ccc([C@]5(C)CCNC5)cc4)ncc3[C@@]2(C)CO1 (single isomer, unassigned) [Example 171]	< 10 nM	100 to 1000 nM	–	–
CNCc1cccc(N2c3nc(Nc4ccc5c(c4)C(=O)N(C)CC5(C)C)ncc3[C@@]3(C)COC(C)(C)C[C@@H]23)n1 (single isomer, unassigned) [Example 92]	< 10 nM	100 to 1000 nM	–	–
CC1(C)C[C@@H]2N(c3cccc(N=S(C)(C)=O)n3)c3nc(Nc4ccc([C@]5(C)CCNC5)cc4)ncc3[C@]2(C)CO1 (single isomer, unassigned) [Example 173]	< 10 nM	< 100 nM	–	–
CNCc1cccc(N2c3nc(Nc4ccn(C5CCOCC5)c(=O)c4)ncc3[C@@]3(C)COC(C)(C)C[C@@H]23)n1 (single isomer, unassigned) [Example 386]	< 10 nM	100 to 1000 nM	–	–
CNCc1cccc(N2c3nc(Nc4ccc(N5CCCOCC5)cc4)ncc3[C@@]3(C)COC(C)(C)C[C@@H]23)n1 (single isomer, unassigned) [Example 18]	< 10 nM	100 to 1000 nM	–	–

The next lines start with the values.

IC50 (Wee1 kinase domain; Wee1 kinase domain, ADP-Glo)	IC50 ([1]; A-427, pCDC2 MSD)	IC50 (Wee1 kinase domain; [2])	IC50 [1, 3]	SMILES
–	–	< 10 nM	< 100 nM	Cn1cc(Nc2ncc3c(n2)N(c2cccc(N=S(C)(C)=O)n2)[C@@H]2CC(C)(C)OC[C@]32C)cn1 (single isomer, unassigned) [Example 484]
–	–	< 10 nM	1000 to 10000 nM	CNCc1cccc(N2c3nc(Nc4ccc(-n5ccnc5)nc4)ncc3[C@@]3(C)COC(C)(C)C[C@@H]23)n1 (single isomer, unassigned) [Example 468]
–	–	< 10 nM	1000 to 10000 nM	CNCc1cccc(N2c3nc(Nc4ccc(-n5ccnc5)c(F)c4)ncc3[C@@]3(C)COC(C)(C)C[C@@H]23)n1 (single isomer, unassigned) [Example 466]
–	–	< 10 nM	100 to 1000 nM	CC1(C)C[C@H]2N(c3cccc(C4(F)CNC4)n3)c3nc(Nc4ccc(N5CCOCC5)cc4)ncc3[C@@]2(C)CO1 (single isomer, unassigned) [Example 545]
–	–	< 10 nM	1000 to 10000 nM	CN1CCN(c2ccc(Nc3ncc4c(n3)N(c3ccn(C5CC5)n3)[C@@H]3CC(C)(C)OC[C@]43C)cc2)CC1 (single isomer, unassigned) [Example 739]
–	–	< 10 nM	100 to 1000 nM	CN1C[C@H]2C[C@@H]1CN2c1ccc(Nc2ncc3c(n2)N(c2cccc(N4CCCC4=O)n2)[C@@H]2CC(C)(C)OC[C@]32C)cc1 [Example 631, 1-(6-((4bR,8aR)-4b,7,7-trimethyl-2-((4-((1R,4R)-5-methyl-2,5-diazabicyclo[2.2.1]heptan-2-yl)phenyl)amino)-4b,7,8,8a-tetrahydropyrano[3′,4′:4,5]pyrrolo[2,3-d]pyrimidin-9(5H)-yl)pyridin-2-yl)pyrrolidin-2-one]
–	–	< 10 nM	100 to 1000 nM	CC1(C)C[C@H]2N(c3cccc(N=S(C)(C)=O)n3)c3nc(Nc4ccc(N5CCOCC5)nc4)ncc3[C@@]2(C)CO1 (single isomer, unassigned) [Example 493]
–	–	< 10 nM	100 to 1000 nM	CN[C@@H](c1cccc(N2c3nc(Nc4ccc(N5CCN(C)CC5)cc4)ncc3[C@@]3(C)COC(C)(C)C[C@@H]23)n1)C(F)(F)F [Example 756, (4bR,8aR)-4b,7,7-trimethyl-N-(4-(4-methylpiperazin-1-yl)phenyl)-9-(6-((S)-2,2,2-trifluoro-1-(methylamino)ethyl)pyridin-2-yl)-4b,5,7,8,8a,9-hexahydropyrano[3′,4′:4,5]pyrrolo[2,3-d]pyrimidin-2-amine]
–	–	< 10 nM	100 to 1000 nM	CC1(C)C[C@H]2N(c3cccc(N4CCOC4=O)n3)c3nc(Nc4ccc([C@H]5CCNC5)cc4)ncc3[C@@]2(C)CO1 (single isomer, unassigned) [Example 608]
–	–	< 10 nM	< 100 nM	CN1CCCN(c2ccc(Nc3ncc4c(n3)N(c3cccc(N=S(C)(C)=O)n3)[C@@H]3CC(C)(C)OC[C@]43C)cc2)CC1 (single isomer, unassigned) [Example 501]
–	–	< 10 nM	100 to 1000 nM	CC1(C)C[C@H]2N(c3cccc(N=S(C)(C)=O)n3)c3nc(Nc4ccc(N5CCN6CCC[C@@H]6C5)cc4)ncc3[C@@]2(C)CO1 (single isomer, unassigned) [Example 505]
–	–	< 10 nM	100 to 1000 nM	CC1(C)C[C@H]2N(c3cccc(N4CCOC4=O)n3)c3nc(Nc4ccc([C@@H]5CNC[C@@H]5F)cc4)ncc3[C@@]2(C)CO1 [Example 675, 3-(6-((4bR,8aR)-2-((4-((3R,4R)-4-fluoropyrrolidin-3-yl)phenyl)amino)-4b,7,7-trimethyl-4b,7,8,8a-tetrahydropyrano[3′,4′:4,5]pyrrolo[2,3-d]pyrimidin-9(5H)-yl)pyridin-2-yl)oxazolidin-2-one]
–	–	< 10 nM	< 100 nM	C[C@H]1CN(c2ccc(Nc3ncc4c(n3)N(c3cccc(N=S(C)(C)=O)n3)[C@@H]3CC(C)(C)OC[C@]43C)cc2)CCN1C (single isomer, unassigned) [Example 500]
